Results: patent US20050159427A1, “N-acylsulfonamide apoptosis promoters” (priority 2003, published 2005)

Columns and labels:
Test in all cases: Tumor cell viability (TABLE 1)
Assay type in all cases: cell-based
MDA-MB-435 = settings: Homo sapiens, MDA-MB-435, 48 h, read-out: EC50 (50% reduction in cell viability)
SF-539 = settings: Homo sapiens, read-out: EC50 (50% reduction in cell viability); SF-539 (CNS); serum-free conditions, 48 hour treatment; mean ± SEM
SF-268 = settings: Homo sapiens, read-out: EC50 (50% reduction in cell viability); SF-268 (CNS); serum-free conditions, 48 hour treatment; mean ± SEM
786-0 = settings: Homo sapiens, read-out: EC50 (50% reduction in cell viability); 786-0 (Renal); serum-free conditions, 48 hour treatment; mean ± SEM

For CN(C)CC[C@H](CSc1ccccc1)Nc1ccc(S(=O)(=O)NC(=O)c2ccc(N3CCN(Cc4ccccc4-c4ccc(Cl)cc4)CC3)cc2)cc1[N+](=O)[O-] [EXAMPLE 2, N-(4-(4-((4′-chloro(1,1′-biphenyl)-2-yl)methyl)piperazin-1-yl)benzoyl)-4-(((1R)-3-(dimethylamino)-1-((phenylsulfanyl)methyl)propyl)amino)-3-nitrobenzenesulfonamide], which EC50 (MDA-MB-435) is on record?
The EC50 was 2.4 µM.

What about the EC50 (SF-539) of the same molecule?
The EC50 was 4.1 ± 0.6 µM.

And the EC50 (SF-268)?
The EC50 was 8.3 ± 0.4 µM.

And the EC50 (786-0)?
The EC50 was 2.9 ± 0.1 µM.
